Molecular target: HIV-1 RT wild-type enzyme (Human immunodeficiency virus type 1 group M subtype B (isolate HXB2) (HIV-1), UniProt P04585)
Assay: HIV-1 reverse transcriptase inhibitory activity (RT polymerase assay)
Format: biochemical
Conditions: HIV-1 RT wild-type enzyme 83 pM; RNA-dependent DNA polymerase activity; read-out: IC50
Experimental: Determination of HIV-1 Reverse Transcriptase Inhibitory Activity
The heterodimeric nucleic acid substrate used in the HIV-1 RT polymerase reactions was generated by annealing the DNA primer, biotinylated pD500 (Sigma Aldrich, USA, 5′-biotin-ttg aaa tga ctg cgg tac ggc-3′), SEQ ID NO. 1 to the nucleotide RNA template t500 (derived from hepatitis C virus [HCV] sequence, IBA, Germany, 5′-[…]-3′), SEQ ID NO 2). […] The mixture was then preincubated on an orbital shaker for 30 min at room temperature in microtiter plates (Costar 3365, Corning, USA). A polymerization reaction was initiated by the addition of RNA template/pD500 DNA primer hybrid (16.6 nM final of RNA/DNA hybrid) and dNTPs (2 μM dATP, dGTP, dCTP and 66.6 nM Ru-dUTP (Meso Scale Discovery, USA)). Plate was sealed and incubated for 5-10 min at room temperature on an orbital shaker. Plate was then incubated for 90 min at 37° C. and reactions quenched with 60 μl quenching buffer (50 mM EDTA, 0.7% BSA, 0.7% Tween-20, 0.017% sodium azide in PBS). The resulting solution was incubated at room temperature for an additional 5 min and then 50 μL was transferred to pre-blocked Avidin plates (L15AA, Meso Scale Discovery). Each well of Avidin plate was blocked for 1 h at room temperature with 100 μL 5% BSA in PBS. Blocking solution was removed by tapping vigorously on filter paper to remove all excess liquid. Reaction on pre-blocked avidin plate proceeded for 60 min at room temperature and then contents removed by tapping vigorously on filter paper to remove all excess liquid. After washing plate 3 times with 150 μL 1×PBS and blotting dry between cycles, 150 μL 1× Read Buffer T (4× Read Buffer T, Meso Scale Discovery) was added and incubated for 5 min at room temperature before counting on a Sector Imager […] (Meso Scale Discovery). Titration curves and IC50 values were calculated using a four parameter logisitc fit according to standard procedures. Briefly, % Inhibition=100×((sample raw value)−(mean value of the low control or 0% inhibition))/((mean value of wells representing 100% inhbition)−(mean value of 0% inhbition)). In this assay, low control wells contain DMSO (0% inhbition) and 100% inhibition wells contain 1 μM efavirenz.

## N#Cc1cccc(Oc2c(C(F)(F)F)ncn(Cc3cc(C(F)F)n[nH]c3=O)c2=O)c1F [Example 174, 3-((1-((6-(difluoromethyl)-3-oxo-2,3-dihydropyridazin-4-yl)methyl)-6-oxo-4-(trifluoromethyl)-1,6-dihydropyrimidin-5-yl)oxy)-2-fluorobenzonitrile]
  IC50: 5 nM

## N#Cc1cc(Cl)cc(Oc2c(C(F)(F)F)ncn(Cc3cc(-c4cc(F)c(F)c(F)c4)c(=O)[nH]n3)c2=O)c1 [Example 55, 3-chloro-5-((6-oxo-1-((6-oxo-5-(3,4,5-trifluorophenyl)-1,6-dihydropyridazin-3-yl)methyl)-4-(trifluoromethyl)-1,6-dihydropyrimidin-5-yl)oxy)benzonitrile]
  IC50: 11 nM

## N#Cc1cc(Cl)cc(Oc2c(C(F)(F)F)ncn(Cc3ncc[nH]c3=O)c2=O)c1 [Example 4, 3-chloro-5-((6-oxo-1-((3-oxo-3,4-dihydropyrazin-2-yl)methyl)-4-(trifluoromethyl)-1,6-dihydropyrimidin-5-yl)oxy)benzonitrile]
  IC50: 124 nM

## Cc1ncn(Cc2cc(C(C)(F)F)n[nH]c2=O)c(=O)c1Oc1cc(Cl)cc(C#N)c1 [Example 181, 3-chloro-5-((1-((6-(1,1-difluoroethyl)-3-oxo-2,3-dihydropyridazin-4-yl)methyl)-4-methyl-6-oxo-1,6-dihydropyrimidin-5-yl)oxy)benzonitrile]
  IC50: 12 nM

## CC(C)(C)c1ccc(-c2cc(Cn3cnc(C(F)(F)F)c(Oc4cc(Cl)cc(C#N)c4)c3=O)n[nH]c2=O)cc1 [Example 53, 3-((1-((5-(4-(tert-butyl)phenyl)-6-oxo-1,6-dihydropyridazin-3-yl)methyl)-6-oxo-4-(trifluoromethyl)-1,6-dihydropyrimidin-5-yl)oxy)-5-chlorobenzonitrile]
  IC50: 70 nM

## Cc1c(C#N)cc(F)cc1Oc1c(C(F)(F)F)ncn(Cc2cc(-c3ccc(F)cc3)c(=O)[nH]n2)c1=O [Example 168, 5-fluoro-3-((1-((5-(4-fluorophenyl)-6-oxo-1,6-dihydropyridazin-3-yl)methyl)-6-oxo-4-(trifluoromethyl)-1,6-dihydropyrimidin-5-yl)oxy)-2-methylbenzonitrile]
  IC50: 5 nM

## Cc1c(C#N)cc(F)cc1Oc1c(C(F)(F)F)ncn(Cc2ccc(=O)[nH]n2)c1=O [Example 164, 5-fluoro-2-methyl-3-(6-oxo-1-((6-oxo-1,6-dihydropyridazin-3-yl)methyl)-4-(trifluoromethyl)-1,6-dihydropyrimidin-5-yloxy)benzonitrile]
  IC50: 7 nM

## N#Cc1cc(Cl)cc(Oc2c(C(F)(F)F)ncn(Cc3cc(-c4cccc(F)c4)c(=O)[nH]n3)c2=O)c1 [Example 26, 3-chloro-5-((1-((5(3-fluorophenyl)-6-oxo-1,6-dihydropyridazin-3-yl)methyl)-6-oxo-4-(trifluoromethyl)-1,6-dihydropyrimidin-5-yl)oxy)benzonitrile]
  IC50: 5 nM

## N#Cc1cc(Cl)cc(Oc2c(C(F)(F)F)ncn(Cc3cc(-c4cccnc4)n[nH]c3=O)c2=O)c1 [Example 124, 3-chloro-5-((6-oxo-1-((3-oxo-6-(pyridin-3-yl)-2,3-dihydropyridazin-4-yl)methyl)-4-(trifluoromethyl)-1,6-dihydropyrimidin-5-yl)oxy)benzonitrile]
  IC50: 6 nM

## N#Cc1cc(Cl)cc(Oc2c(C(F)(F)F)ncn(Cc3cc(-c4ccc(F)c(F)c4F)c(=O)[nH]n3)c2=O)c1 [Example 62, 3-chloro-5-((6-oxo-1-((6-oxo-5-(2,3,4-trifluorophenyl)-1,6-dihydropyridazin-3-yl)methyl)-4-(trifluoromethyl)-1,6-dihydropyrimidin-5-yl)oxy)benzonitrile]
  IC50: 10 nM

## CC(F)(F)c1ncn(Cc2cc(-c3ccc(F)cc3)c(=O)[nH]n2)c(=O)c1Oc1cc(Cl)cc(C#N)c1 [Example 170, 3-chloro-5-((4-(1,1-difluoroethyl)-1-((5-(4-fluorophenyl)-6-oxo-1,6-dihydropyridazin-3-yl)methyl)-6-oxo-1,6-dihydropyrimidin-5-yl)oxy)benzonitrile]
  IC50: 5 nM

## N#Cc1cc(Cl)cc(Oc2c(C(F)(F)F)ncn(Cc3cc(-c4ccc(Cl)c(F)c4)n[nH]c3=O)c2=O)c1 [Example 123, 3-chloro-5-((1-((6-(4-chloro-3-fluorophenyl)-3-oxo-2,3-dihydropyridazin-4-yl)methyl)-6-oxo-4-(trifluoromethyl)-1,6-dihydropyrimidin-5-yl)oxy)benzonitrile]
  IC50: 6 nM

## Cc1ccc(F)cc1-c1cc(Cn2cnc(C(F)(F)F)c(Oc3cc(Cl)cc(C#N)c3)c2=O)n[nH]c1=O [Example 50]
  IC50: 165 nM

## N#Cc1cc(Cl)cc(Oc2c(C(F)(F)F)ncn(Cc3cc(-c4cccc(F)c4)n[nH]c3=O)c2=O)c1 [Example 113, 3-chloro-5-((1-((6-(3-fluorophenyl)-3-oxo-2,3-dihydropyridazin-4-yl)methyl)-6-oxo-4-(trifluoromethyl)-1,6-dihydropyrimidin-5-yl)oxy)benzonitrile]
  IC50: 6 nM

## Cc1ccc(-c2cc(Cn3cnc(C(F)(F)F)c(Oc4cc(Cl)cc(C#N)c4)c3=O)n[nH]c2=O)cc1F [Example 58, 3-chloro-5-((1-((5-(3-fluoro-4-methylphenyl)-6-oxo-1,6-dihydropyridazin-3-yl)methyl)-6-oxo-4-(trifluoromethyl)-1,6-dihydropyrimidin-5-yl)oxy)benzonitrile]
  IC50: 4 nM

## N#Cc1cc(Cl)cc(Oc2c(C(F)(F)F)ncn(Cc3cc(-c4cncc(C#N)c4)c(=O)[nH]n3)c2=O)c1 [Example 84, 5-(6-((5-(3-chloro-5-cyanophenoxy)-6-oxo-4-(trifluoromethyl)pyrimidin-1(6H)-yl)methyl)-3-oxo-2,3-dihydropyridazin-4-yl)nicotinonitrile]
  IC50: 27 nM

## CN(C)c1cc(Cn2cnc(C(F)(F)F)c(Oc3cc(Cl)cc(C#N)c3)c2=O)n[nH]c1=O [Example 92, 3-chloro-5-((1-((5-(dimethylamino)-6-oxo-1,6-dihydropyridazin-3-yl)methyl)-6-oxo-4-(trifluoromethyl)-1,6-dihydropyrimidin-5-yl)oxy)benzonitrile]
  IC50: 6 nM

## N#Cc1cc(Cl)cc(Oc2c(C(F)(F)F)ncn(Cc3cnc(-c4cccc(F)c4)[nH]c3=O)c2=O)c1 [Example 150, 3-chloro-5-((1-((2-(3-fluorophenyl)-6-oxo-1,6-dihydropyrimidin-5-yl)methyl)-6-oxo-4-(trifluoromethyl)-1,6-dihydropyrimidin-5-yl)oxy)benzonitrile]
  IC50: 9 nM

## N#Cc1cc(Cl)cc(Oc2c(C(F)F)ncn(Cc3ccc(=O)[nH]n3)c2=O)c1 [Example 160, 3-chloro-5-((4-(difluoromethyl)-6-oxo-1-((6-oxo-1,6-dihydropyridazin-3-yl)methyl)-1,6-dihydropyrimidin-5-yl)oxy)benzonitrile]
  IC50: 26 nM

## N#Cc1cc(Cl)cc(Oc2c(C(F)(F)F)ncn(Cc3cc(-c4ccc(OC(F)(F)F)cc4)c(=O)[nH]n3)c2=O)c1 [Example 24, 3-chloro-5-((6-oxo-1-((6-oxo-5-(4-(trifluoromethoxy)phenyl)-1,6-dihydropyridazin-3-yl)methyl)-4-(trifluoromethyl)-1,6-dihydropyrimidin-5-yl)oxy)benzonitrile]
  IC50: 24 nM

## N#Cc1cc(Cl)cc(Oc2c(C(F)(F)F)ncn(Cc3cnc(C(F)(F)F)[nH]c3=O)c2=O)c1 [Example 131, 3-Chloro-5-[16-oxo-1-(6-oxo-2-trifluoromethyl-1,6-dihydro-pyrimidin-5-ylmethyl)-4-trifluoromethyl-1,6-dihydro-pyrimidin-5-yloxy]-benzonitrile]
  IC50: 435 nM

— US9718819B2 (Merck Sharp & Dohme Corp., priority 2012, dated 2017)
